Measurements reported in US9339471B2, “Long acting dual release product containing carbinoxamine and pseudoephedrine” (E5 PHARMA, LLC, priority 2007, dated 2016).
Read-outs that look alike come from different tables or passages of the source.

Experiment: Single dose bioavailability study in the non-fasted state, 4 mg immediate release carbinoxamine maleate tablet
Assay type: in vivo
Parameters: Plasma concentration of carbinoxamine: unit not given here
Conditions: nonfasted; for AUC(0-t) / Cmax / MRT / Tmax / half-life / AUC: human, plasma, po, 4 mg; for AUC: read-out: AUC0-
Experimental: A single dose bioavailability study was also undertaken in the non-fasted state using 4 mg immediate release carbinoxamine maleate tablets formulated in an immediate release format. Samples were taken over a forty eight hours period after administration of the drug with heparinized tubes. Breakfast was ingested thirty minutes before administration.
FIG. 2 is a mean plasma concentration-time profile of carbinoxamine after administering the 4 mg carbinoxamine maleate immediate release tablet in the non-fasted state from time 0 to time 48 hours. Graph (A) is the linear ordinate; graph (B) is the log-linear ordinate. FIG. 3 is an overlay of mean plasma concentration-time profiles of carbinoxamine administered under nonfasted and fasted conditions from time 0 to 48 hours, as reported in Example 3. Graph (A) is an overlay in the linear ordinates for the two conditions; graph (B) is an overlay in the log-linear ordinates for the two conditions.

## CN(C)CCOC(c1ccc(Cl)cc1)c1ccccn1 (stereo not drawn) [carbinoxamine, 2-[(4-chlorophenyl)-2-pyridinylmethoxy]-N,N-dimethylethanamine (Z)-2-butenedioate (1:1)]
Mean
  AUC(0-t): 212 ng·h/mL
  Cmax: 12.6 ng/mL
  MRT: 26.9 h
  Tmax: 2.67 h
  half-life: 19 h
  AUC: 260 ng·h/mL
Subject 101
  AUC(0-t): 175 ng·h/mL
  Cmax: 8.11 ng/mL
  MRT: 25.6 h
  Tmax: 4 h
  half-life: 17.1 h
  AUC: 206 ng·h/mL
Subject 102
  AUC(0-t): 292 ng·h/mL
  Cmax: 18.9 ng/mL
  MRT: 31.7 h
  Tmax: 2 h
  half-life: 22.9 h
  AUC: 178 ng·h/mL
Subject 103
  AUC(0-t): 170 ng·h/mL
  Cmax: 10.7 ng/mL
  MRT: 23.4 h
  Tmax: 2 h
  half-life: 16.9 h
  AUC: 196 ng·h/mL
0 h, subject 101T
  Plasma concentration of carbinoxamine: blq
0 h, subject 102T
  Plasma concentration of carbinoxamine: blq
0 h, subject 103T
  Plasma concentration of carbinoxamine: blq
0.5 h, T-Mean
  Plasma concentration of carbinoxamine: 1415.00
0.5 h, subject 101T
  Plasma concentration of carbinoxamine: 1190.29
0.5 h, subject 102T
  Plasma concentration of carbinoxamine: 1371.47
0.5 h, subject 103T
  Plasma concentration of carbinoxamine: 1683.25
1 h, T-Mean
  Plasma concentration of carbinoxamine: 9391.48
1 h, subject 101T
  Plasma concentration of carbinoxamine: 5017.55
1 h, subject 102T
  Plasma concentration of carbinoxamine: 15948.51
1 h, subject 103T
  Plasma concentration of carbinoxamine: 7208.39
2 h, T-Mean
  Plasma concentration of carbinoxamine: 12274.78
2 h, subject 101T
  Plasma concentration of carbinoxamine: 7279.95
2 h, subject 102T
  Plasma concentration of carbinoxamine: 18873.34
2 h, subject 103T
  Plasma concentration of carbinoxamine: 10671.05
3 h, T-Mean
  Plasma concentration of carbinoxamine: 10596.92
3 h, subject 101T
  Plasma concentration of carbinoxamine: 7409.87
3 h, subject 102T
  Plasma concentration of carbinoxamine: 14981.55
3 h, subject 103T
  Plasma concentration of carbinoxamine: 9399.33
4 h, T-Mean
  Plasma concentration of carbinoxamine: 9957.93
4 h, subject 101T
  Plasma concentration of carbinoxamine: 8113.91
4 h, subject 102T
  Plasma concentration of carbinoxamine: 12868.20
4 h, subject 103T
  Plasma concentration of carbinoxamine: 8891.67
5 h, T-Mean
  Plasma concentration of carbinoxamine: 9064.58
5 h, subject 101T
  Plasma concentration of carbinoxamine: 7450.78
5 h, subject 102T
  Plasma concentration of carbinoxamine: 11670.11
5 h, subject 103T
  Plasma concentration of carbinoxamine: 8072.86
6 h, T-Mean
  Plasma concentration of carbinoxamine: 8311.90
6 h, subject 101T
  Plasma concentration of carbinoxamine: 7053.79
6 h, subject 102T
  Plasma concentration of carbinoxamine: 10649.47
6 h, subject 103T
  Plasma concentration of carbinoxamine: 7232.44
8 h, T-Mean
  Plasma concentration of carbinoxamine: 7184.22
8 h, subject 101T
  Plasma concentration of carbinoxamine: 6458.92
8 h, subject 102T
  Plasma concentration of carbinoxamine: 8834.94
8 h, subject 103T
  Plasma concentration of carbinoxamine: 6258.79
12 h, T-Mean
  Plasma concentration of carbinoxamine: 5363.07
12 h, subject 101T
  Plasma concentration of carbinoxamine: 4676.58
12 h, subject 102T
  Plasma concentration of carbinoxamine: 7186.93
12 h, subject 103T
  Plasma concentration of carbinoxamine: 4225.70
24 h, T-Mean
  Plasma concentration of carbinoxamine: 3869.18
24 h, subject 101T
  Plasma concentration of carbinoxamine: 3297.38
24 h, subject 102T
  Plasma concentration of carbinoxamine: 5400.86
24 h, subject 103T
  Plasma concentration of carbinoxamine: 2909.31
36 h, T-Mean
  Plasma concentration of carbinoxamine: 2453.59
36 h, subject 101T
  Plasma concentration of carbinoxamine: 2197.69
36 h, subject 102T
  Plasma concentration of carbinoxamine: 3336.26
36 h, subject 103T
  Plasma concentration of carbinoxamine: 1826.88
48 h, T-Mean
  Plasma concentration of carbinoxamine: 1650.44
48 h, subject 101T
  Plasma concentration of carbinoxamine: 1249.68
48 h, subject 102T
  Plasma concentration of carbinoxamine: 2616.93
48 h, subject 103T
  Plasma concentration of carbinoxamine: 1084.70
